In patent US12673945B2, “3-((8-((1H-pyrazol-4-yl)amino)imidazo[1,2-a]pyridin-3-yl)ethinyl)-n-phenylbenzamide derivative, method for preparing same, and pharmaceutical composition containing same as active ingredient for prevention or treatment of cancer” (DAEGU-GYEONGBUK MEDICAL INNOVATION FOUNDATION, priority 2020, dated 2026):

Legend:
Assay type in all cases: cell-based
T315I-Bcr-Abl (Ba/F3) = test: Ba/F3 cell proliferation inhibition; conditions: BaF3; 72 hours, Cell Counting Kit-8
How it was run: (§1)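 GI50 derived from CCK-8 absorbance at 450 nm (2 h development), expressed relative to DMSO vehicle. Cells (parental or T315I-Bcr-Abl Ba/F3, 1×10^4/well) received nine threefold-diluted concentrations, final 0 to 10 μM, for 72 h at 37 °C.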

Parental (Ba/F3) = test: Ba/F3 cell proliferation inhibition; conditions: BaF3; 72 hours, Cell Counting Kit-8
How it was run: as §1

KOPM28 cells = test: human CML cell proliferation inhibition; conditions: 72 hours, Cell Counting Kit-8
How it was run: (§2)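 Seed 1×10^4 cells/well; add compound, 9 concentrations by 5-fold dilution, final 0–10 μM, or DMSO; incubate 72 h, 37 °C, CO2; add CCK-8 for 2 h; read A450; normalise to vehicle; fit GI50.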

T315I-TCCS cells = test: human CML cell proliferation inhibition; conditions: 72 hours, Cell Counting Kit-8
How it was run: as §2

T315I-KOPM28 cells = test: human CML cell proliferation inhibition; conditions: 72 hours, Cell Counting Kit-8
How it was run: as §2

TCCS cells = test: human CML cell proliferation inhibition; conditions: 72 hours, Cell Counting Kit-8
How it was run: as §2

Compound | GI50 (T315I-Bcr-Abl (Ba/F3)) | GI50 (Parental (Ba/F3)) | GI50 (KOPM28 cells) | GI50 (T315I-TCCS cells) | GI50 (T315I-KOPM28 cells) | GI50 (TCCS cells)
Cc1cc(F)c(C(=O)Nc2ccc(CN3CCN(C)CC3)c(C(C)(C)C#N)c2)cc1C#Cc1cnc2c(Nc3cnn(C)c3)cccn12 [Example 39, N-(3-(2-cyanopropan-2-yl)-4-((4-methylpiperazin-1-yl)methyl)phenyl)-2-fluoro-4-methyl-5-((8-((1-methyl-1H-pyrazol-4-yl)amino)imidazo[1,2-a]pyridin-3-yl)ethynyl)benzamide] | < 50 nM | > 5000 nM | < 10 nM | 100 nM | 100 nM | < 10 nM
Cc1cc(F)c(C(=O)Nc2ccc(CN3CCOCC3)c(C(C)(C)C#N)c2)cc1C#Cc1cnc2c(Nc3cnn(C)c3)cccn12 [Example 40, N-(3-(2-cyanopropan-2-yl)-4-(morpholinomethyl)phenyl)-2-fluoro-4-methyl-5-((8-((1-methyl-1H-pyrazol-4-yl)amino)imidazo[1,2-a]pyridin-3-yl)ethynyl)benzamide] | 50 to 500 nM | > 5000 nM | < 10 nM | > 100 nM | > 100 nM | < 10 nM
Cc1cc(F)c(C(=O)Nc2ccc(CN3CCC(N(C)C)C3)c(C(C)(C)C#N)c2)cc1C#Cc1cnc2c(Nc3cnn(C)c3)cccn12 (stereo not drawn) [Example 41, N-(3-(2-cyanopropan-2-yl)-4-((3-(dimethylamino)pyrrolidin-1-yl)methyl)phenyl)-2-fluoro-4-methyl-5-((8-((1-methyl-1H-pyrazol-4-yl)amino)imidazo[1,2-a]pyridin-3-yl)ethynyl)benzamide] | 50 to 500 nM | 500 to 5000 nM | < 10 nM | > 100 nM | > 100 nM | < 10 nM
Cc1cc(F)c(C(=O)Nc2ccc(CN3CCCN(C)CC3)c(C(C)(C)C#N)c2)cc1C#Cc1cnc2c(Nc3cnn(C)c3)cccn12 [Example 42, N-(3-(2-cyanopropan-2-yl)-4-((4-methyl-1,4-diazepan-1-yl)methyl)phenyl)-2-fluoro-4-methyl-5-((8-((1-methyl-1H-pyrazol-4-yl)amino)imidazo[1,2-a]pyridin-3-yl)ethynyl)benzamide] | 50 to 500 nM | 500 to 5000 nM | < 10 nM | 100 nM | > 100 nM | < 10 nM
Cc1cc(F)c(C(=O)Nc2ccc(CN3CCN(CCO)CC3)c(C(C)(C)C#N)c2)cc1C#Cc1cnc2c(Nc3cnn(C)c3)cccn12 [Example 43, N-(3-(2-cyanopropan-2-yl)-4-((4-(2-hydroxyethyl)piperazin-1-yl)methyl)phenyl)-2-fluoro-4-methyl-5-((8-((1-methyl-1H-pyrazol-4-yl)amino)imidazo[1,2-a]pyridin-3-yl)ethynyl)benzamide] | 50 to 500 nM | 500 to 5000 nM | < 10 nM | 100 nM | > 100 nM | < 10 nM
Cc1cc(F)c(C(=O)Nc2ccc(CN3CCN(C)C(=O)C3)c(C(C)(C)C#N)c2)cc1C#Cc1cnc2c(Nc3cnn(C)c3)cccn12 [Example 44, N-(3-(2-cyanopropan-2-yl)-4-((4-methyl-3-oxopiperazin-1-yl)methyl)phenyl)-2-fluoro-4-methyl-5-((8-((1-methyl-1H-pyrazol-4-yl)amino)imidazo[1,2-a]pyridin-3-yl)ethynyl)benzamide] | 50 to 500 nM | 500 to 5000 nM | < 10 nM | > 100 nM | > 100 nM | < 10 nM
Cc1cc(F)c(C(=O)Nc2ccc(CN3CCN(S(C)(=O)=O)CC3)c(C(C)(C)C#N)c2)cc1C#Cc1cnc2c(Nc3cnn(C)c3)cccn12 [Example 45, N-(3-(2-cyanopropan-2-yl)-4-((4-(methylsulfonyl)piperazin-1-yl)methyl)phenyl)-2-fluoro-4-methyl-5-((8-((1-methyl-1H-pyrazol-4-yl)amino)imidazo[1,2-a]pyridin-3-yl)ethynyl)benzamide] | 500 to 5000 nM | > 5000 nM | < 10 nM | > 100 nM | > 100 nM | < 10 nM
Cc1cc(F)c(C(=O)Nc2ccc(Cn3ccnc3)c(C(C)(C)C#N)c2)cc1C#Cc1cnc2c(Nc3cnn(C)c3)cccn12 [Example 46, N-(4-((1H-imidazol-1-yl)methyl)-3-(2-cyanopropan-2-yl)phenyl)-2-fluoro-4-methyl-5-((8-((1-methyl-1H-pyrazol-4-yl)amino)imidazo[1,2-a]pyridin-3-yl)ethynyl)benzamide] | 50 to 500 nM | > 5000 nM | < 10 nM | > 100 nM | > 100 nM | < 10 nM
Cc1cc(F)c(C(=O)Nc2cc(N3CCN(C)CC3)cc(C(F)(F)F)c2)cc1C#Cc1cnc2c(Nc3cnn(C)c3)cccn12 [Example 47, 2-fluoro-4-methyl-5-((8-((1-methyl-1H-pyrazol-4-yl)amino)imidazo[1,2-a]pyridin-3-yl)ethynyl)-N-(3-(4-methylpiperazin-1-yl)-5-(trifluoromethyl)phenyl)benzamide] | 50 to 500 nM | 500 to 5000 nM | < 10 nM | 100 nM | 100 nM | < 10 nM
Cc1cc(F)c(C(=O)Nc2cc(N(C)CCN(C)C)cc(C(F)(F)F)c2)cc1C#Cc1cnc2c(Nc3cnn(C)c3)cccn12 [Example 48, N-(3-((2-(dimethylamino)ethyl)(methyl)amino)-5-(trifluoromethyl)phenyl)-2-fluoro-4-methyl-5-((8-((1-methyl-1H-pyrazol-4-yl)amino)imidazo[1,2-a]pyridin-3-yl)ethynyl)benzamide] | 50 to 500 nM | > 5000 nM | < 10 nM | 100 nM | > 100 nM | < 10 nM
Cc1cc(F)c(C(=O)Nc2cc(N3CCN(C)C(=O)C3)cc(C(F)(F)F)c2)cc1C#Cc1cnc2c(Nc3cnn(C)c3)cccn12 [Example 49, 2-fluoro-4-methyl-5-((8-((1-methyl-1H-pyrazol-4-yl)amino)imidazo[1,2-a]pyridin-3-yl)ethynyl)-N-(3-(4-methyl-3-oxopiperazin-1-yl)-5-(trifluoromethyl)phenyl)benzamide] | 50 to 500 nM | 500 to 5000 nM | < 10 nM | < 10 nM | 100 nM | < 10 nM
Cc1cc(F)c(C(=O)Nc2cc(OCCN(C)C)cc(C(F)(F)F)c2)cc1C#Cc1cnc2c(Nc3cnn(C)c3)cccn12 [Example 50, N-(3-(2-(dimethylamino)ethoxy)-5-(trifluoromethyl)phenyl)-2-fluoro-4-methyl-5-((8-((1-methyl-1H-pyrazol-4-yl)amino)imidazo[1,2-a]pyridin-3-yl)ethynyl)benzamide] | 50 to 500 nM | > 5000 nM | < 10 nM | 100 nM | > 100 nM | < 10 nM
Cc1cc(F)c(C(=O)Nc2cc(OCCCN(C)C)cc(C(F)(F)F)c2)cc1C#Cc1cnc2c(Nc3cnn(C)c3)cccn12 [Example 51, N-(3-(3-(dimethylamino)propoxy)-5-(trifluoromethyl)phenyl)-2-fluoro-4-methyl-5-((8-((1-methyl-1H-pyrazol-4-yl)amino)imidazo[1,2-a]pyridin-3-yl)ethynyl)benzamide] | 50 to 500 nM | > 5000 nM | < 10 nM | 100 nM | 100 nM | 100 nM
Cc1cc(F)c(C(=O)Nc2cc(-c3ccncc3)cc(C(F)(F)F)c2)cc1C#Cc1cnc2c(Nc3cnn(C)c3)cccn12 [Example 52, 2-fluoro-4-methyl-5-((8-((1-methyl-1H-pyrazol-4-yl)amino)imidazo[1,2-a]pyridin-3-yl)ethynyl)-N-(3-(pyridin-4-yl)-5-(trifluoromethyl)phenyl)benzamide] | 50 to 500 nM | > 5000 nM | < 10 nM | 100 nM | 100 nM | < 10 nM
Cc1cc(F)c(C(=O)Nc2cc(-c3cccnc3)cc(C(F)(F)F)c2)cc1C#Cc1cnc2c(Nc3cnn(C)c3)cccn12 [Example 53, 2-fluoro-4-methyl-5-((8-((1-methyl-1H-pyrazol-4-yl)amino)imidazo[1,2-a]pyridin-3-yl)ethynyl)-N-(3-(pyridin-3-yl)-5-(trifluoromethyl)phenyl)benzamide] | 50 to 500 nM | > 5000 nM | < 10 nM | 100 nM | > 100 nM | < 10 nM
Cc1cc(F)c(C(=O)Nc2cc(-c3cnn(C)c3)cc(C(F)(F)F)c2)cc1C#Cc1cnc2c(Nc3cnn(C)c3)cccn12 [Example 54, 2-fluoro-4-methyl-N-(3-(1-methyl-1H-pyrazol-4-yl)-5-(trifluoromethyl)phenyl)-5-((8-((1-methyl-1H-pyrazol-4-yl)amino)imidazo[1,2-a]pyridin-3-yl)ethynyl)benzamide] | 50 to 500 nM | > 5000 nM | 100 nM | 100 nM | > 100 nM | < 10 nM
Cc1cc(F)c(C(=O)Nc2ccc(CN3CCN(C)CC3)c(C(F)(F)F)c2)cc1C#Cc1cnc2c(Nc3cnn(C)c3)cccn12 [Example 55, 2-fluoro-4-methyl-5-((8-((1-methyl-1H-pyrazol-4-yl)amino)imidazo[1,2-a]pyridin-3-yl)ethynyl)-N-(4-((4-methylpiperazin-1-yl)methyl)-3-(trifluoromethyl)phenyl)benzamide] | < 50 nM | 500 to 5000 nM | < 10 nM | < 10 nM | < 10 nM | < 10 nM
